Test results reported in ChEMBL document CHEMBL2034966, “Bidirectional fluorescence properties of pyrene-based peroxisome proliferator-activated receptor (PPAR) α/δ dual agonist” (Bioorg Med Chem, 2012).
Numbering of substitutions follows the chain as printed. Calls of active or inactive are those of the source. No cut-off for these calls is given here.

Legend:
Homo sapiens [1] = organism: Homo sapiens; experiment: Binding affinity to N-terminal His-tagged human PPARdelta W256A mutant ligand binding domain assessed as increase in fluorescence at 500 nM by fluorometry
[2] = target: T1, Peroxisome proliferator-activated receptor delta (Homo sapiens) (UniProt Q03181); experiment: Binding affinity to N-terminal His-tagged human PPARdelta ligand binding domain assessed as decrease in fluorescence at 500 nM by fluorometry
T1 sequence (whole entry): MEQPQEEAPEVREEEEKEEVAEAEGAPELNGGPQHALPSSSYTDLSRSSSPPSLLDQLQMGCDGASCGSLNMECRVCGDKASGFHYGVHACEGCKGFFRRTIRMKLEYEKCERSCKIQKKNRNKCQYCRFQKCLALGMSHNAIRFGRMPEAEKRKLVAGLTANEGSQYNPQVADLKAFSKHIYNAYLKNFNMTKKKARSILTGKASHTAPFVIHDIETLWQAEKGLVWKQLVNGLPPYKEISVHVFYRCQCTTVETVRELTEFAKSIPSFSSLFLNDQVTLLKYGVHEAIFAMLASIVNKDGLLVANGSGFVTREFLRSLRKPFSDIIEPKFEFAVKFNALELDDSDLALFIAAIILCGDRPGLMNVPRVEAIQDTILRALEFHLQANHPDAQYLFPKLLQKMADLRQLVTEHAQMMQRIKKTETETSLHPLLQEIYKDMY

Homo sapiens [3] = organism: Homo sapiens; experiment: Binding affinity to N-terminal His-tagged human PPARdelta W264A mutant ligand binding domain assessed as increase in fluorescence at 500 nM by fluorometry
Homo sapiens [4] = organism: Homo sapiens; experiment: Binding affinity to N-terminal His-tagged human PPARdelta W225A mutant ligand binding domain assessed as decrease in fluorescence at 500 nM by fluorometry
[5] = test system: T2, Peroxisome proliferator-activated receptor alpha (Homo sapiens), Q07869 [L258W]; experiment: Binding affinity to N-terminal His-tagged human PPARalpha L258W mutant ligand binding domain assessed as increase in fluorescence at 500 nM by fluorometry
T2 sequence (whole entry): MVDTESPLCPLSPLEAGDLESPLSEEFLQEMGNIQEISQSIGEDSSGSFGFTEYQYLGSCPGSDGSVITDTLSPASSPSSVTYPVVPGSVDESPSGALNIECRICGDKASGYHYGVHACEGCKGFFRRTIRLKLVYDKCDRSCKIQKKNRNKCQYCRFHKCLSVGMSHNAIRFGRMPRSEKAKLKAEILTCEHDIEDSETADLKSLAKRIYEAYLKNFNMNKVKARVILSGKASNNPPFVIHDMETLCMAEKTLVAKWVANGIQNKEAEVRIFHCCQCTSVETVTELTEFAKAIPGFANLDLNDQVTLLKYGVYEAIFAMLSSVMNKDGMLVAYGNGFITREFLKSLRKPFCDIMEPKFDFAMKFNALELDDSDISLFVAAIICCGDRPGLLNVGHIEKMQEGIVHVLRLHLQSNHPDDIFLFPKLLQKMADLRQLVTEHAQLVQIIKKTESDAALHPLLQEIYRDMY

Homo sapiens [6] = organism: Homo sapiens; experiment: Binding affinity to N-terminal His-tagged human PPARdelta W264L mutant ligand binding domain assessed as increase in fluorescence at 500 nM by fluorometry
[7] = target: T3, Peroxisome proliferator-activated receptor alpha (Homo sapiens) (UniProt Q07869); experiment: Binding affinity to N-terminal His-tagged human PPARalpha ligand binding domain assessed as increase in fluorescence at 500 nM by fluorometry
T3 sequence (whole entry): T2 sequence (whole entry) with W258L

In the case of CC[C@@H](Cc1ccc(OC)c(CNC(=O)c2ccc3ccc4cccc5ccc2c3c45)c1)C(=O)O, the Activity (Homo sapiens [1]) was “inactive”, the Activity [2] was “Active” and the Activity (Homo sapiens [3]) was “Active”. The Activity (Homo sapiens [4]) was “Active”, the Activity [5] was “inactive” and the Activity (Homo sapiens [6]) was “Active”. The Activity [7] was “Active”.
